Laboratory results taken from patent US11808760B1, “System and methods for in vitro structural toxicity testing” (CURI BIO, INC., priority 2019, dated 2023).

Tests used:
liver cells [1] = test system: liver cells
liver cells [2] = assay: AI (CNN) structural toxicity assay, aspirin on liver cells (FIG. 6); type: cell-based
Text: In an exemplary embodiment of the subject technology, a series of 2-class neural network training steps may be used, where a separate model is created for each drug dose compared to its control. As will be appreciated, a high level of sensitivity in detecting structural changes will be generated. As a result, aspects of the subject technology successfully capture obvious phenotypes, such as cell damage and death, as well as subtle phenotypes, such as changes to sarcomere organization or distribution of mitochondria.
As detailed in the following sections, the input imaging data is processed and may be augmented before training deep neural networks. For each test condition, images from a well are dedicated for validation and the rest are used for training. The performance of each training may be used on the validation wells as the measure of structural change. […] One the other hand, if the achieved accuracy is high, it means that the trained neural network was able to differentiate between the drug-treated images at dose i versus the vehicle images, and the strength of the change is calculated from the distribution of class probabilities.
A 2-class deep neural network may be trained (530) for image classification. The higher layers of the neural network may be allowed to learn the image features. […]

iPSC-derived hepatocytes = assay: AI (CNN) structural toxicity assay, validation z-factor versus dose (FIG. 7); type: cell-based; settings: reference vehicle (DMSO), doses 0.01-30 uM, 18-layer residual network
Protocol: When using multi-channel images, the channels may include brightfield images, and fluorescence images captured at different wavelengths in order to visualize different cellular structures. As one example of an experimental setup, the cells are iPSC-derived hepatocytes, the drug under investigation is tamoxifen (a drug with known liver toxicity), dose X is 0.01 uM, dose Y is 0.10 uM, dose Z is 1.00 uM, the cells are fixed and stained with phalloidin-conjugated fluorescent dyes, and the imaging is performed with an inverted fluorescence microscopy system, capturing multiple images at each individual well.
A 2-class deep neural network may be trained (530) for image classification. The higher layers of the neural network may be allowed to learn the image features. The training may be performed with an initial learning rate of 0.01 for 20 epochs and may be repeated three times. For each training session, the final neural network may be selected from the epoch with the highest validation accuracy.
To generate the input data to train the neural network, each image may be processed and augmented. […]

Compound | structural damage of liver cells over time (liver cells [1]) | structural changes in the cells (liver cells [2]) | dose at which validation z-factors show values above -1 (start of structural changes between drug-treated cells and reference cells) (iPSC-derived hepatocytes)
CC(=O)N[C@@H](CS)C(=O)O [acetylcysteine] | little damage to the cells | – | –
CC(=O)Oc1ccccc1C(=O)O [aspirin] | – | no, or minimal, structural changes | –
COc1cccc2c1C(=O)c1c(O)c3c(c(O)c1C2=O)C[C@@](O)(C(=O)CO)C[C@@H]3O[C@H]1C[C@H](N)[C@H](O)[C@H](C)O1 [doxorubicin] | changes in the structural integrity of the cells | – | –
CC/C(=C(\c1ccccc1)c1ccc(OCCN(C)C)cc1)c1ccccc1 [tamoxifen] | noticeable structural damage | – | 5 µM
